Results as given in ChEMBL document CHEMBL3351435, “New pyrrole derivatives with potent tubulin polymerization inhibiting activity as anticancer agents including hedgehog-dependent cancer” (J Med Chem, 2014).
pIC50: −log10 of the molar value. The source made the active and inactive calls. The calls are words filed in the database; no cut-off is given here.

What was measured:
Tubulin = test: Inhibition of tubulin (unknown origin) polymerization incubated 15 mins prior to GTP addition by spectrophotometry; format: protein-complex assay, Homo sapiens
MCF7 = test: Cytotoxicity against human MCF7 cells after 96 hrs by Giemsa staining-based light microscopy; format: functional, cell-based; settings: MCF7, 96 h
Tubulin (Homo sapiens) [1] = molecular target: T1, Tubulin (Homo sapiens) (UniProt P68371+Q9H4B7+P0DPH7+P68366+Q13509+Q71U36+P04350+Q3ZCM7+P07437+P68363+Q9BQE3+Q6PEY2+Q13885+Q9BVA1+Q9BUF5); test: Displacement of [3H]colchicine from tubulin (unknown origin) at 5 uM after 10 mins; format: protein-complex assay
K562 [2] = test: Cytotoxicity against human K562 cells assessed as growth inhibition after 96 hrs by Giemsa staining-based light microscopy; format: functional, cell-based; settings: K562, 96 h
K562 [3] = test: Cell cycle arrest in human K562 cells assessed as mitotic index at 4 uM (reference value: 3 +/- 1%)
K562 [4] = test: Cell cycle arrest in human K562 cells assessed as mitotic index at 10 times IC50 (reference value: […] +/- […]%); format: functional
[5] = Cell cycle arrest in human PC3 cells assessed as accumulation at G2/M phase at 500 nM after 24 hrs by propidium iodide staining-based flow cytometry; format: functional; settings: PC-3
RD [6] = test: Cell cycle arrest in human RD cells assessed as accumulation at G2/M phase at 500 nM after 24 hrs by propidium iodide staining-based flow cytometry; format: functional
[7] = Cell cycle arrest in human PC3 cells assessed as rounded cells at 500 nM after 24 hrs by propidium iodide staining-based flow cytometry; format: functional; settings: PC-3
RD [8] = test: Cell cycle arrest in human RD cells assessed as rounded cells at 500 nM after 24 hrs by propidium iodide staining-based flow cytometry; format: functional
[9] = Cell cycle arrest in human PC3 cells at 500 to 2000 nM incubated for 24 hrs followed by compound washout measured after 24 hrs; format: functional, cell-based; settings: PC-3
RD [10] = test: Cell cycle arrest in human RD cells at 1000 to 2000 nM incubated for 24 hrs followed by compound washout measured after 24 hrs; format: functional, cell-based
RD [11] = test: Cell cycle arrest in human RD cells at 500 nM incubated for 24 hrs followed by compound washout measured after 24 hrs; format: functional, cell-based
HepG2 [12] = test: Cell cycle arrest in human HepG2 cells at 500 to 2000 nM incubated for 24 hrs followed by compound washout measured after 24 hrs; format: functional, cell-based
Tubulin (Homo sapiens) [13] = molecular target: T1, Tubulin (Homo sapiens); test: Inhibition of tubulin (unknown origin) polymerization at 20 uM incubated 15 mins prior to GTP addition by spectrophotometry; format: protein-complex assay
HeLa [14] = test: Cytotoxicity against human HeLa cells assessed as growth inhibition after 48 hrs by MTT method; format: functional, cell-based
HT-29 = test: Cytotoxicity against human HT-29 cells assessed as growth inhibition after 48 hrs by MTT method; format: functional, cell-based; settings: HT-29, 48 h
A549 = test: Cytotoxicity against human A549 cells assessed as growth inhibition after 48 hrs by MTT method; format: functional, cell-based; settings: A549, 48 h
NCI/ADR-RES = test: Cytotoxicity against human NCI/ADR-RES cells assessed as growth inhibition after 96 hrs by Giemsa staining-based light microscopy; format: functional, cell-based
[15] = Cytotoxicity against human MESSA cells assessed as growth inhibition after 72 hrs by CellTitre-Glo assay; format: functional, cell-based; settings: MES-SA
[16] = Cytotoxicity against human MESSA/DX5 cells assessed as growth inhibition after 72 hrs by CellTitre-Glo assay; format: functional, cell-based; settings: MES-SA/Dx5, 72 h
cells = settings: Homo sapiens, OVCAR-8, 96 h
Description: Cytotoxicity against human OVCAR8 cells assessed as growth inhibition after 96 hrs by Giemsa staining-based light microscopy

HeLa [17] = test: Cell cycle arrest in human HeLa cells assessed as accumulation at G2/M phase at 20 nM by propidium iodide staining-based flow cytometry; format: functional
HeLa [18] = test: Cell cycle arrest in human HeLa cells assessed as mitotic rounded-up phenotype at 20 nM by light microscopy; format: functional, cell-based
RD [19] = test: Cytotoxicity against human RD cells assessed as growth inhibition after 48 hrs by MTT method; format: functional, cell-based
HepG2 [20] = test: Cytotoxicity against human HepG2 cells assessed as growth inhibition after 48 hrs by MTT method; format: functional, cell-based; settings: HepG2, 48 h

pIC50 (Tubulin)	inhibition (Tubulin (Homo sapiens) [1]) [%]	SMILES	pIC50 (MCF7)	also measured
6.00	77	COc1cc(C(=O)c2ccn(-c3ccccc3F)c2)cc(OC)c1OC	6.00	
6.02	79	COc1cc(C(=O)c2ccn(-c3cccc(C)c3)c2)cc(OC)c1OC	7.30	
5.68	55	COc1cc(C(=O)c2ccn(-c3cccc(F)c3)c2)cc(OC)c1OC	5.89	
	59	COc1cc(C(=O)c2ccn(-c3ccc(O)cc3)c2)cc(OC)c1OC	6.35	
5.05		COc1cc(C(=O)c2ccn(-c3cccc([N+](=O)[O-])c3)c2)cc(OC)c1OC		
5.92	86	COc1cc(C(=O)c2ccn(-c3cccc(O)c3)c2)cc(OC)c1OC	6.40	
5.85	78	COc1cc(C(=O)c2ccn(-c3ccc(F)cc3)c2)cc(OC)c1OC	6.72	
5.06		COc1cc(C(=O)c2ccn(-c3ccccc3Cl)c2)cc(OC)c1OC	5.35	
5.66	58	COc1cc(C(=O)c2ccn(-c3cccc(Cl)c3)c2)cc(OC)c1OC	6.22	
4.89		COc1cc(C(=O)c2ccn(-c3ccccc3C)c2)cc(OC)c1OC		
4.80		COc1cc(C(=O)c2ccn(S(=O)(=O)c3ccccc3)c2)cc(OC)c1OC		
5.77	67	COc1cc(C(=O)c2ccn(-c3ccccc3O)c2)cc(OC)c1OC	6.28	
5.82	60	COc1cc(C(=O)c2ccn(-c3cccc(N(C)C)c3)c2)cc(OC)c1OC	6.00	
5.17		COc1cc(C(=O)c2ccn(-c3ccccc3N)c2)cc(OC)c1OC		
5.21		COc1cc(C(=O)c2ccn(-c3ccccc3OC(C)C)c2)cc(OC)c1OC		
5.64	73	COc1cc(C(=O)c2ccn(-c3ccc(Cl)cc3)c2)cc(OC)c1OC	6.70	
5.89	81	COc1cc(C(=O)c2ccn(-c3ccc(N)cc3)c2)cc(OC)c1OC	7.82	

More lines, now with the values behind:

SMILES	pIC50 (Tubulin)	inhibition (Tubulin (Homo sapiens) [1]) [%]	pIC50 (MCF7)	also measured
COc1cc(C(=O)c2ccn(-c3cccc(N4CCCC4)c3)c2)cc(OC)c1OC	5.60	23	7.80	pIC50 (K562 [2]): 6.02; Activity (K562 [3]): 39%
CNc1cccc(-n2ccc(C(=O)c3cc(OC)c(OC)c(OC)c3)c2)c1	6.00	92		pIC50 (K562 [2]): 7.52; Activity (K562 [4]): 61%
CC[C@]1(O)C[C@H]2CN(CCc3c([nH]c4ccccc34)[C@@](C(=O)OC)(c3cc4c(cc3OC)N(C=O)[C@H]3[C@@](O)(C(=O)OC)[C@H](OC(C)=O)[C@]5(CC)C=CCN6CC[C@]43[C@@H]65)C2)C1				Activity [5]: Active; Activity (RD [6]): Active; Activity [7]: Active; Activity (RD [8]): Active; Activity [9]: inactive; Activity (RD [10]): inactive; Activity (RD [11]): Active; Activity (HepG2 [12]): inactive
COc1cc(C(=O)c2ccn(Cc3ccccc3)c2)cc(OC)c1OC	< 4.40			
COc1ccc(C(=O)c2ccn(-c3cc(OC)c(OC)c(OC)c3)c2)cc1O				inhibition (Tubulin (Homo sapiens) [13]): inactive
COc1cc(C(=O)c2ccn(-c3cccc(NC(C)C)c3)c2)cc(OC)c1OC	5.60	53	7.70	pIC50 (K562 [2]): 6.30; Activity (K562 [3]): 69%
COc1cccc(-n2ccc(C(=O)c3cc(OC)c(OC)c(OC)c3)c2)c1	5.74	66	6.22	pIC50 (HeLa [14]): 6.00; pIC50 (HT-29): 6.10; pIC50 (A549): 5.52; pIC50 (NCI/ADR-RES): 7.05; pIC50 [15]: 6.58; pIC50 [16]: 6.33; pIC50 (cells): 6.60
COc1cc(C(=O)c2ccn(-c3cccc(NS(C)(=O)=O)c3)c2)cc(OC)c1OC	6.07	84	7.22	Activity (K562 [4]): 61%
COc1cc(C(=O)c2ccn(-c3cc(OC)c(OC)c(OC)c3)c2)cc(OC)c1OC	< 4.40			
COc1ccc(C(=O)c2ccn(-c3cc(OC)c(OC)c(OC)c3)c2)cc1OC(C)C				inhibition (Tubulin (Homo sapiens) [13]): inactive
O=C(c1ccccc1)c1ccn(-c2ccccc2)c1				inhibition (Tubulin (Homo sapiens) [13]): inactive
COc1ccc(-n2ccc(C(=O)c3cc(OC)c(OC)c(OC)c3)c2)cc1OC	5.68	56	7.00	
COc1ccc(-n2ccc(C(=O)c3cc(OC)c(OC)c(OC)c3)c2)cc1OC(C)C	5.77	48		pIC50 (HeLa [14]): 6.10; pIC50 (HT-29): 6.10; pIC50 (A549): 6.00
COc1ccc(-n2ccc(C(=O)c3cc(OC)c(OC)c(OC)c3)c2)cc1N	5.89	89	6.33	
COc1cc(C(=O)c2ccn(-c3ccc(OC(C)C)cc3)c2)cc(OC)c1OC				inhibition (Tubulin (Homo sapiens) [13]): inactive
COc1cc(C(=O)c2ccn(-c3cccc(N4CCCCC4)c3)c2)cc(OC)c1OC				inhibition (Tubulin (Homo sapiens) [13]): inactive
COc1ccc(-n2ccc(C(=O)c3cc(OC)c(OC)c(OC)c3)c2)cc1	5.92	76	6.60	pIC50 (HeLa [14]): 6.82; pIC50 (HT-29): 6.70; pIC50 (A549): 7.10; pIC50 (NCI/ADR-RES): 7.77; pIC50 [15]: 7.20; pIC50 [16]: 7.06; pIC50 (cells): 7.22
COc1cc(C(=O)c2ccn(-c3cccc(OC(C)C)c3)c2)cc(OC)c1OC	5.60	17	6.60	
COc1cc(C(=O)c2ccn(-c3ccc(C)cc3)c2)cc(OC)c1OC	6.05	95		pIC50 (K562 [2]): 7.52; Activity (K562 [4]): 61%
COc1cc(C(=O)c2ccn(-c3cccc(-n4cccc4)c3)c2)cc(OC)c1OC	5.60	27	7.37	pIC50 (K562 [2]): 7.05; Activity (K562 [4]): 47%
COc1cc(C(=O)c2ccn(-c3cccc(OCc4ccccc4)c3)c2)cc(OC)c1OC				inhibition (Tubulin (Homo sapiens) [13]): inactive
COc1ccc(-n2ccc(C(=O)c3cc(OC)c(OC)c(OC)c3)c2)cc1[N+](=O)[O-]			6.08	
CC[C@]1(O)C[C@@H]2CN(CCc3c([nH]c4ccccc34)[C@@](C(=O)OC)(c3cc4c(cc3OC)N(C)[C@H]3[C@@](O)(C(=O)OC)[C@H](OC(C)=O)[C@]5(CC)C=CCN6CC[C@]43[C@@H]65)C2)C1 [VINBLASTINE]				pIC50 [15]: 8.52; pIC50 [16]: 6.84; Activity (HeLa [17]): Active; Activity (HeLa [18]): Active; pIC50 (RD [19]): 7.28; pIC50 (HepG2 [20]): 7.09; Activity [5]: Active; Activity (RD [6]): Active; Activity [7]: Active; Activity (RD [8]): Active; Activity [9]: inactive; Activity (RD [10]): inactive; Activity (RD [11]): Active; Activity (HepG2 [12]): inactive; pIC50 (cells): 7.82
COc1cc(-n2ccc(C(=O)c3ccccc3)c2)cc(OC)c1OC				inhibition (Tubulin (Homo sapiens) [13]): inactive
COc1cc(C(=O)c2ccn(-c3ccccc3[N+](=O)[O-])c2)cc(OC)c1OC				inhibition (Tubulin (Homo sapiens) [13]): inactive
COc1cc(C(=O)c2ccn(C)c2)cc(OC)c1OC	< 4.40			
COc1cc(C(=O)c2cc[nH]c2)cc(OC)c1OC	< 4.40			
COc1ccc(-n2ccc(C(=O)c3cc(OC)c(OC)c(OC)c3)c2)cc1O	5.89	79	5.35	pIC50 (HeLa [14]): 6.70; pIC50 (HT-29): < 5.00; pIC50 (A549): < 5.00
COc1cc(C(=O)c2ccn(-c3ccc([N+](=O)[O-])cc3)c2)cc(OC)c1OC				inhibition (Tubulin (Homo sapiens) [13]): inactive
COc1ccccc1-n1ccc(C(=O)c2cc(OC)c(OC)c(OC)c2)c1	5.57	50	5.46	pIC50 (HeLa [14]): 6.05; pIC50 (HT-29): 6.00; pIC50 (A549): 6.00; pIC50 (NCI/ADR-RES): 6.70; pIC50 [15]: 6.29; pIC50 [16]: 6.19; pIC50 (cells): 6.35
